Data taken from patent publication US5585492A, “LTA4 Hydrolase inhibitors” (priority 1994, dated 1996).

System: LTB4 production in human blood
Experiment: Inhibition of Calcium Ionophore-Induced LTB4 Production in Human Blood (HWB)
Type: cell-based
Details: Homo sapiens, human whole blood, A23187 20 mcg/ml; read-out: Inhibition of Calcium Ionophore-Induced LTB4 Production in Human Blood IC50 HWB
Method: One or more concentrations of the leukotriene A4 hydrolass inhibitor compounds being tested were prepared (diluted in DMSO) and 2 μl added and gently mixed with the diluted whole blood. After incubating for 15 minutes at 37° C. in a humidified incubator, calcium ionophore A23187 (Sigma Chemical Co., St. Louis, Mo.) was added to a final concentration of 20 mcg/ml and the incubation continued under the same conditions for an additional 10 minutes to allow LTB4 formation. The reaction was terminated by centrifugation (833 g, 10 minutes at 4° C.) and supernatant were analyzed for LTB4 and thromboxane by commercially available enzyme-linked immunoassays (Caymen Chemical Co., Ann Arbor, Mich.) according to the manufacturer's instructions. The IC50 of each test compound was determined from the amount of inhibition of LTB4 production as compared to an essentially identical assay in which no inhibitor compound was present.

IC50 | SMILES
828 nM | CCOC(=O)CC1CCN(CCOc2ccc(Cc3ccccc3)cc2)CC1 [Example 301]
86 nM | O=C(O)C1C2CN(CCOc3ccc(Cc4ccccc4)cc3)CC21 (centres unmarked) [Example 435]
280 nM | Fc1ccccc1Cc1ccc(OCCN2CCCC2)cc1 [Example 141]
600 nM | Fc1ccc(Oc2ccc(OCCn3cnc4ncccc43)cc2)cc1 [Example 354B]
10000 nM | c1ccc2c(COc3ccc(OCCN4CCCC4)cc3)cccc2c1 [Example 214]
190 nM | c1csc(COc2ccc(OCCN3CCCC3)cc2)c1 [Example 215]
220 nM | NC(=O)C1CCN(CCOc2ccc(Cc3cccs3)cc2)CC1 [Example 229]
220 nM | CC1CCC(C)N1CCOc1ccc(Cc2ccccc2)cc1 (centres unmarked) [Example 399]
730 nM | NC(=O)C1CCN(CCOc2ccc(Cc3ccccc3)cn2)CC1 [Example 147]
429 nM | CCOC(=O)CCNC(=O)C1CCN(CCOc2ccc(Cc3ccccc3)cc2)CC1 [Example 249]
648 nM | CC(=O)N[C@H]1C[C@@H](C)N(CCOc2ccc(Cc3ccccc3)cc2)[C@@H](C)C1 [Example 315]
2480 nM | COC(=O)C1CN(CCCOc2ccc(Cc3ccccc3)cc2)CCC1=O (centres unmarked) [Example 262]
2010 nM | CCC(CN1CCCC1)Oc1ccc(Cc2ccccc2)cc1 (centres unmarked) [Example 405]
43 nM | c1csc(Cc2ccc(OCCN3CCCC3)cc2)c1 [Example 133]
5700 nM | c1ccc(COc2ccc(OCCn3cnc4cnccc43)cc2)cc1 [Example 347B]
610 nM | O=C(CCl)NC1CCN(CCOc2ccc(Cc3ccccc3)cc2)C1 (centres unmarked) [Example 454]
220 nM | c1ccc(Cc2ccc(OCCN3CC4CCC3C4)cc2)cc1 (centres unmarked) [Example 499]
52 nM | c1ccc(Cc2ccc3c(c2)CCC(CN2CCCC2)O3)cc1 (centres unmarked) [Example 292]
630 nM | c1ccc(Cc2ccc(OCCNC3CCCC3)cc2)cc1 [Example 241]
4200 nM | c1ccc(Cc2ccc3c(c2)CC(Cn2cccc4ncnc2-4)O3)cc1 (centres unmarked) [Example 359C]
226 nM | CC(=O)N[C@@H]1CCN(CCOc2ccc(Cc3ccccc3)cc2)[C@@H](C)C1 (relative stereo) [Example 467]
1370 nM | CCOC(=O)C1CCN(CC2Cc3cc(Cc4ccccc4)ccc3O2)CC1 (centres unmarked) [Example 282]
758 nM | CCOC(=O)[C@@H]1CCN(CCOc2ccc(Cc3ccccc3)cc2)[C@H](C)C1 (relative stereo) [Example 298]

IC50 | SMILES
152 nM | c1ccc(Cc2ccc3c(c2)CC(Cn2cnc4ccncc42)O3)cc1 (centres unmarked) [Example 358A]
500 nM | c1ccc2ncc(Cc3ccc(OCCN4CCCC4)cc3)cc2c1 [Example 132]
2230 nM | Fc1ccc(Oc2ccc(OCCn3cnc4ccncc43)cc2)cc1 [Example 355A]
359 nM | C[C@@H]1C[C@H](C(N)=O)CCN1CCOc1ccc(Cc2ccccc2)cc1 (relative stereo) [Example 297]
1250 nM | CCOC(=O)CCNCCCCCOc1ccc(Cc2ccccc2)cc1 [Example 274]
316 nM | c1ccc(Oc2ccc3c(c2)CC(CN2CCCC2)O3)cc1 (centres unmarked) [Example 289]
1010 nM | c1cc(OCCN2CCCC2)ccc1Cc1ccc2c(c1)OCO2 [Example 130]
510 nM | c1ccc(Oc2ccc(OCCN3CCCC3)nc2)cc1 [Example 65]
1350 nM | CCOC(=O)C1CCN(CCOc2ccc(Cc3cccs3)cc2)CC1 [Example 310]
11800 nM | [O-][S+](CCN1CCCC1)c1ccc(Cc2ccccc2)cc1 (centres unmarked) [Example 69]
340 nM | c1ccc(Cc2ccc(OCCCn3ccc4ncnc-4c3)cc2)cc1 [Example 356C]
13100 nM | c1ccc(Cc2ccc(OCCn3cnc4ccccc43)cc2)cc1 [Example 339]
580 nM | Fc1ccc(Cc2ccc(OCCN3CCCC3)cc2)cc1 [Example 139]
1770 nM | CCOC(=O)C1CCN(CCOc2ccc(Cc3cccc(F)c3)cc2)CC1 [Example 309]
1970 nM | CC(C)(O)CCNCCCOc1ccc(Cc2ccccc2)cc1 [Example 416]
4650 nM | COc1ccc(COc2ccc(OCCN3CCCC3)cc2)cc1 [Example 213]
13600 nM | c1ccc(Oc2ccc(OCCCn3cnc4cccnc43)cc2)cc1 [Example 350A]
1230 nM | COC(=O)C1(O)CCN(CCOc2ccc(Cc3ccccc3)cc2)CC1 [Example 305]
7050 nM | c1ccc(COc2ccc(OCCn3cnc4ccncc43)cc2)cc1 [Example 347A]
532 nM | NC(=O)C1(O)CCN(CCOc2ccc(Cc3ccccc3)cc2)CC1 [Example 427]
7700 nM | COC(=O)C1CC2CC1CN(CCOc1ccc(Cc3ccccc3)cc1)C2 (centres unmarked) [Example 504]
154 nM | O=C(CCNCCCCOc1ccc(Cc2ccccc2)cc1)OCc1ccccc1 [Example 273]
13500 nM | c1ccc(Oc2ccc(OCCn3cnc4ccccc43)cc2)cc1 [Example 344]

IC50 | SMILES
910 nM | Fc1ccc(Oc2ccc(OCCn3cnc4cnccc43)cc2)cc1 [Example 355B]
167 nM | NC(=O)C1CCN(CC2Cc3cc(Cc4ccccc4)ccc3O2)CC1 (centres unmarked) [Example 281]
1670 nM | c1ccc(Oc2ccc(OCCCn3cccc4ncnc3-4)cc2)cc1 [Example 350C]
3800 nM | CC(CN1CCCCC1)Oc1ccc(Cc2ccccc2)cc1 (centres unmarked) [Example 403]
1530 nM | NC(=O)C1CCN(CCOc2ccc(Cc3ccccc3)s2)CC1 [Example 369]
960 nM | NC(=O)C1CCN(CC2Cc3cc(Cc4ccccc4)cnc3O2)CC1 (centres unmarked) [Example 288]
142 nM | c1ccc(Cc2ccc(OCCN3CC4CCC3CC4)cc2)cc1 [Example 500]
340 nM | CC(=O)N1CCN(CC2Cc3cc(Cc4ccccc4)ccc3O2)CC1 (centres unmarked) [Example 294]
180 nM | NC1CCN(CCOc2ccc(Cc3ccccc3)cc2)CC1 [Example 455]
2450 nM | c1ccc(Cc2ccc(OCCNC3CCCCC3)cc2)cc1 [Example 240]
750 nM | c1ccc(Cc2ccc(OCCCn3cnc4cnccc43)cc2)cc1 [Example 356B]
930 nM | c1ccc(Cc2ccc(OCCCn3cnc4ncccc43)cc2)cc1 [Example 341B]
950 nM | c1ccc(Oc2ccc(OCCCn3cnc4ncccc43)cc2)cc1 [Example 350B]
1750 nM | c1ccc2ncc(COc3ccc(OCCN4CCCC4)cc3)cc2c1 [Example 201]
210 nM | OCC1CCCN1CCOc1ccc(Cc2ccccc2)cc1 (centres unmarked) [Example 385]
490 nM | NC(=O)C1CCN(CCOc2ccc(Cc3cccc(F)c3)cc2)CC1 [Example 233]
850 nM | O=C(CCNCCCOc1ccc(Cc2ccccc2)cc1)N1CCOCC1 [Example 424]
830 nM | CCOC(=O)CCN(CCCOc1ccc(Cc2ccccc2)cc1)Cc1cccnc1 [Example 414]
440 nM | c1ccc(Cc2ccc(OCCCN3CCCC3)cc2)cc1 [Example 259]
10000 nM | COc1ccc(Cc2ccc(OCCN3CCC(C(N)=O)CC3)cc2)cc1 [Example 232]
540 nM | c1ccc(Oc2ccc(OCCn3cccc4ncnc3-4)cc2)cc1 [Example 348C]
620 nM | Fc1cccc(COc2ccc(OCCN3CCCC3)cc2)c1 [Example 211]
3280 nM | Cc1ccc(COc2ccc(OCCN3CCCC3)cc2)cc1 [Example 212]

IC50 | SMILES
650 nM | NC(=O)C1CCCN(CCOc2ccc(Cc3ccccc3)cc2)C1 (centres unmarked) [Example 243]
528 nM | NC(=O)C1CCN(CC2Cc3cc(Oc4ccccc4)ccc3O2)CC1 (centres unmarked) [Example 290]
1150 nM | Fc1ccc(COc2ccc(OCCN3CCCC3)cc2)cc1 [Example 205]
640 nM | Fc1ccccc1COc1ccc(OCCN2CCCC2)cc1 [Example 207]
550 nM | O=C(O)C1CCN(CCOc2ccc(Cc3cccc(F)c3)cc2)CC1 [Example 436]
1280 nM | c1ccc(Cc2ccc(OCCCn3cnc4ccncc43)cc2)cc1 [Example 356A]
6690 nM | c1ccc(COc2ccc(OCCn3cccc4ncnc3-4)cc2)cc1 [Example 346C]
367 nM | CC1CC(C(N)=NO)CCN1CCOc1ccc(Cc2ccccc2)cc1 (centres unmarked) [Example 445]
490 nM | NC(=O)C1CCCN(CCOc2ccc(Oc3ccccc3)cc2)C1 (centres unmarked) [Example 253]
560 nM | c1ccc(Oc2ccc(OCCn3cnc4ncccc43)cc2)cc1 [Example 348B]
900 nM | COc1ccc(Cc2ccc(OCCN3CCCC3)cc2)cc1F [Example 144]
360 nM | c1ccc(Oc2ccc(OCCCn3ccc4ncnc-4c3)cc2)cc1 [Example 351C]
2390 nM | c1ccc(Cc2cnc3c(c2)CC(CN2CCCC2)O3)cc1 (centres unmarked) [Example 287]
290 nM | Clc1cccc(Cc2ccc(OCCN3CCCC3)cc2)c1 [Example 143]
16000 nM | Clc1cc(OCCN2CCCC2)ccc1Cc1ccccc1 [Example 114]
450 nM | CCOC(=O)CCNCCCOc1ccc(Cc2ccccc2)cc1 [Example 265]
6600 nM | O=C(Nc1ccccc1)OC[C@@H]1CCCN1CCOc1ccc(Cc2ccccc2)cc1 [Example 428]
660 nM | CNC(=O)CCNCCCOc1ccc(Cc2ccccc2)cc1 [Example 422]
160 nM | NC(=NO)C1CCN(CC2Cc3cc(Cc4ccccc4)ccc3O2)CC1 (centres unmarked) [Example 446]
57 nM | [O-][n+]1cccc2c1ncn2CCOc1ccc(Cc2ccccc2)cc1 [Example 363]
913 nM | N=C(N)C1CCN(CCOc2ccc(Cc3ccccc3)cc2)CC1 [Example 449]

SMILES | IC50
CCOC(=O)CC1CCN(CCCOc2ccc(Cc3ccccc3)cc2)CC1 [Example 302] | 2400 nM
Fc1ccc(Oc2ccc(OCCN3CCCC3)cc2)cc1 [Example 48] | 390 nM
